# Assay results from PMC7614683, “A small molecule PI3Kα activator for cardioprotection and neuroregeneration” (Nature, 2023).
# Experiments:
# [1] = molecular target: T1, ATM (Homo sapiens, UniProt Q13315); experiment: ATM in vitro kinase assay (Phos-tag gel); type: biochemical; details: 200 μM 1938
# T1 construct: made in house
# Description: 133 protein kinases and 7 lipid kinases were counterscreened, with 1938 used at 1 μM, using the Adapta, Lantha and Z-LYTE assays (SelectScreen Kinase Profiling Service; Thermofisher – experimental details of these assays can be found here: https://www.thermofisher.com/uk/en/home/industrial/pharma-biopharma/drug-discovery-development/target-and-lead-identification-and-validation/kinasebiology/kinase-activity-assays.html. The tree represention in KinMap[59] generated courtesy of Cell Signaling Technology, Inc. (www.cellsignal.com). mTORC1 (mTOR/RAPTOR/LST8) protein complex and ATM kinase and substrates were produced as previously described[57],[60]. Screening of 1938 was conducted using SuperSep Phos-Tag 50 μmol/l 100 x 100 x 6.6 mm 17-well (192-18001/199-18011) gels. For ATM assays, 100 nM ATM was incubated for 30 min at 30°C with 5 μM GST-p53 and 1 mM ATP, in the absence or presence of 200 μM 1938 in ATM Kinase Buffer (50 mM HEPES pH 7.5, 100 mM NaCl, 10% glycerol, 2 mM […], 5 mM MgCl2). As a positive control for ATM activation, the same reaction was carried out with 100 nM ATM/5 μM GST-p53/1 mM ATP in the presence of 100 nM Mre11-Rad50-Nbs1 (MRN) complex, a known activator of ATM[61]. […] Gels were then stained using InstantBlue™ Coomassie, and quantified using BioRad Image Lab Software. […]
# [2] = tested on: MCF10A cells; experiment: pAKT S473 western blot, MCF10A; type: cell-based, human
# [3] = tested on: rat sciatic nerve; experiment: pAkt generation in exposed rat sciatic nerves; type: in vivo; details: direct injection or bathing, 1938 5 μM, 30 min
# Description: To assess if 1938 could induce pAkt generation in exposed rat sciatic nerves, adult male Sprague Dawley rats (>250g; n=2) were anaesthetised using isoflurane, the left sciatic nerve was exposed and injected with 2 μl vehicle (sterile dH2O) or 1938 (5 μM in sterile dH2O). Meanwhile the right sciatic nerve was exposed and bathed in 250 μl of vehicle (sterile dH2O) or 1938 (5 μM in sterile dH2O). Each animal received one vehicle and one compound treatment. The treatments were left on for 30 min prior to washing the bathed nerves with sterile PBS and culling via sodium pentobarbital injection according to local regulations. Nerves were then harvested, washed in fresh 4°C PBS and stored in a fresh vial before snap freezing in liquid nitrogen. Frozen sciatic nerves were homogenised in RIPA buffer supplemented with protease and phosphatase inhibitors using a mortar and pestle homogeniser. The subsequent crude lysates were centrifuged at 10,000xg for 10 min at 4°C, the supernatant harvested and stored at -80°C prior to automated western blot (Wes) analysis for pAkt and controls (Extended Data Fig. 9a; bottom panel).
# T1 sequence (Q13315 whole entry): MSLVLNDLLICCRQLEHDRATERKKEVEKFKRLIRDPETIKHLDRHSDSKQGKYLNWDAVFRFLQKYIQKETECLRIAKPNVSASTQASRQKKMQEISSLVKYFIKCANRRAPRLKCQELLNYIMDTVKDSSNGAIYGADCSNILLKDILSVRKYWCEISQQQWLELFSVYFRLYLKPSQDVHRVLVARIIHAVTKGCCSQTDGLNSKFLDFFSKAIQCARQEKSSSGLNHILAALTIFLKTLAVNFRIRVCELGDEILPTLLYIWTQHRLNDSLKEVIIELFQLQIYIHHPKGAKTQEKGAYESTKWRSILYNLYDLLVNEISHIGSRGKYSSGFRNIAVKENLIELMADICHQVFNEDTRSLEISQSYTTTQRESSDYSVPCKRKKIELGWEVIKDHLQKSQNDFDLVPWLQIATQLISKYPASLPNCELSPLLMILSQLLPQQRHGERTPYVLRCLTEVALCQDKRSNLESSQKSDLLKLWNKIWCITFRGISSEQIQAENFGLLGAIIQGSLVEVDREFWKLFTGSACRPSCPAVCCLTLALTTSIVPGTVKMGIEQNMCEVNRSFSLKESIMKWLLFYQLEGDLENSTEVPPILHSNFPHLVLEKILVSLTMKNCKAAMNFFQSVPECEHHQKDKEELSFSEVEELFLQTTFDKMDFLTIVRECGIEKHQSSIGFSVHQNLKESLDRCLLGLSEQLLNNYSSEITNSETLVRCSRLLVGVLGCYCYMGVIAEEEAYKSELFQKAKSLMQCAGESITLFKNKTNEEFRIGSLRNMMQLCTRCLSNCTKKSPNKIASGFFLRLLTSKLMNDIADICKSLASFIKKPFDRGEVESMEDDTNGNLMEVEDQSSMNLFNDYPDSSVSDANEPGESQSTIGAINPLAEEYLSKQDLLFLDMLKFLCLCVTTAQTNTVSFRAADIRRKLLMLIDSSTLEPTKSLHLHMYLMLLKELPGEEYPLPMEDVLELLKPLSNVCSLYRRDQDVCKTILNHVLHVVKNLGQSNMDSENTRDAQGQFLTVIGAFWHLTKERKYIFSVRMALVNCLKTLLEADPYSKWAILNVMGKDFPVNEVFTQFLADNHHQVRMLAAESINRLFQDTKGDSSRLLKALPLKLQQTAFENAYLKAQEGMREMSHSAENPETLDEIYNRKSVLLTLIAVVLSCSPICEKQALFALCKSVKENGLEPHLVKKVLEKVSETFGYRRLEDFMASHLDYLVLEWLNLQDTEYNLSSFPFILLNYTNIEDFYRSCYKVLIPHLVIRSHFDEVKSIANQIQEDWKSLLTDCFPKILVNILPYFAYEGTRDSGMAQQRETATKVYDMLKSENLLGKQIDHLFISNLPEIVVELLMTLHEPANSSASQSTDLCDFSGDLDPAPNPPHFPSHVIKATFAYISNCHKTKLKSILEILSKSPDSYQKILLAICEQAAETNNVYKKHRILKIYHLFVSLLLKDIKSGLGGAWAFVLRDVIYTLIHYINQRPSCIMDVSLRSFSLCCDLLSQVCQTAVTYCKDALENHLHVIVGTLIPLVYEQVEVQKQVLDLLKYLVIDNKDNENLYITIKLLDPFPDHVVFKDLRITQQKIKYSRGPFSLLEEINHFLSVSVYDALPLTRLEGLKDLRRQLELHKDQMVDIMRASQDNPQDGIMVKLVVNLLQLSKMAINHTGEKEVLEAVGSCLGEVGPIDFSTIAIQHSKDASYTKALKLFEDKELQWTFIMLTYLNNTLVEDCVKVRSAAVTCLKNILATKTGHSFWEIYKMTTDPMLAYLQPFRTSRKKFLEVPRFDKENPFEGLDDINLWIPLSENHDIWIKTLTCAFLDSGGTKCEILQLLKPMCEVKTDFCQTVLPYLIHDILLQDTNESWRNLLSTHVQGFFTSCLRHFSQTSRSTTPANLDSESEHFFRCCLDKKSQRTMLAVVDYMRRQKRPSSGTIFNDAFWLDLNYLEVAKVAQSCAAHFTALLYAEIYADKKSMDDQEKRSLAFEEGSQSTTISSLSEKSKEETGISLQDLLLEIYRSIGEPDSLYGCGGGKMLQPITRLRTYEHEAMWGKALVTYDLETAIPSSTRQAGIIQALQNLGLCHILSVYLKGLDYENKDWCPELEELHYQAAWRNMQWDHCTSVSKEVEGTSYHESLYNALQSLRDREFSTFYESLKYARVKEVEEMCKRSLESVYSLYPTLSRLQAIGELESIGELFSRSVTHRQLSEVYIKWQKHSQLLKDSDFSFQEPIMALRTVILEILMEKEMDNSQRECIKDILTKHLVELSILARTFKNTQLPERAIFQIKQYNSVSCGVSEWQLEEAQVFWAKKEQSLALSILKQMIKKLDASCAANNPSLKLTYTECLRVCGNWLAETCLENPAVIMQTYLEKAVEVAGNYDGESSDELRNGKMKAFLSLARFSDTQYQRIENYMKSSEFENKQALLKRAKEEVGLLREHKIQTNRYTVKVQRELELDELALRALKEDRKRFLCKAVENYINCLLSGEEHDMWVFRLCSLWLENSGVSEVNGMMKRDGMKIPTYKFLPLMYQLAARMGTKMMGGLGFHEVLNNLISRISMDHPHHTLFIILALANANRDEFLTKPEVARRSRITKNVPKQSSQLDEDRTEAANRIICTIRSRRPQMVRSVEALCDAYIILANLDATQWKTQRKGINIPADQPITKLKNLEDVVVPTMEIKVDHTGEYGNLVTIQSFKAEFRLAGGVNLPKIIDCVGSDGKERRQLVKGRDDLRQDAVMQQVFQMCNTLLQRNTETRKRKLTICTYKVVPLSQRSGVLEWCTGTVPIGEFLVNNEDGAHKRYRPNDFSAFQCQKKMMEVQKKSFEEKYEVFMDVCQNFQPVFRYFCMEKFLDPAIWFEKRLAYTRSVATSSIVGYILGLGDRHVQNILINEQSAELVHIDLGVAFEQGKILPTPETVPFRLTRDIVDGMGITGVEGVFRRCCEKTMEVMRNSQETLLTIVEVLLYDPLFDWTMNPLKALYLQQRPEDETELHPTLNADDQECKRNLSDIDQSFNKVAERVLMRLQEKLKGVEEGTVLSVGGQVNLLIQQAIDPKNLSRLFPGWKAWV
smiles,measurement,setting,value
CCN1CCN(c2ccc(Nc3cc(Nc4cccc5c4N(C(C)=O)CC5)ccn3)cc2)CC1 [Compound 1938],effect on ATM activity,[1],did not affect the activity
same,pAKT^S473 increase,[2],BYL719-sensitive increase in pAKT^S473
same,pAKT in exposed sciatic nerves,[3],pAKT induction
